Among the test systems are UO-31; HL-60; SK-OV-3; MDA-N; COLO 205; MOLT-4; PC-3; DU-145; A549; K562; KM12; IGROV-1; SF-268; OVCAR-4; NCI-H23; SK-MEL-28; RXF 393; OVCAR-3; HOP-62; U-251.
Test in all cases: DTP human tumour cell line panel, 48 h

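Interpolation was linear, between the two tested concentrations surrounding the appropriate level; five concentrations were tested over 48 hours in 96-well plates. GI50 marks 50% less growth.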 Activity calls are given as the source filed them. No stated cut-off is given here; in the data, active = GI50 up to about 1.1 µM and inactive = higher.

9 compounds from ChEMBL document CHEMBL1201862, “PubChem BioAssay data set” (2004) can be followed below.

Regarding `O=C(O)CCc1c2ccc(=O)c(O)c-2oc2c(O)c(O)ccc12`, the GI50 in the experiment with UO-31 is > 100 µM (inactive); in the experiment with HL-60, 44.3 µM (inactive); in the experiment on SK-OV-3, > 100 µM (inactive); in the experiment with MDA-N it was 16.3 µM (inactive); with COLO 205 it was > 100 µM (inactive); in the experiment with MOLT-4, 23.3 µM (inactive). Further, the GI50 is > 100 µM (inactive) in the experiment with PC-3; > 100 µM (inactive) in the experiment with DU-145; > 100 µM (inactive) in the experiment on A549; 24 µM (inactive) in the experiment on K562; 29.3 µM (inactive) in the experiment with KM12; > 100 µM (inactive) in the experiment on IGROV-1. Moreover, the GI50 with SF-268 is 32.4 µM (inactive); with OVCAR-4, 46.2 µM (inactive); in the experiment with NCI-H23, 61.4 µM (inactive); in the experiment on SK-MEL-28 it was > 100 µM (inactive); in the experiment on RXF 393, > 100 µM (inactive); in the experiment with OVCAR-3 it was 91.8 µM (inactive). For the same compound, the GI50 in the experiment with HOP-62 was > 100 µM (inactive); in the experiment with U-251, 30.1 µM (inactive).
For the compound `CN1C(=O)N/C(=C\c2ccc(S(=O)(=O)N/N=C\C(O)C(O)C(O)CO)cc2)C1=O` (stereo not given), the GI50 with UO-31, with HL-60, in the experiment on SK-OV-3, with MDA-N, in the experiment on COLO 205 and in the experiment with MOLT-4 was > 100 µM (inactive) in each case. The GI50 in the experiment on PC-3, with DU-145, with A549, in the experiment with K562, in the experiment on KM12 and with IGROV-1 was > 100 µM (inactive) throughout. Besides, the GI50 in the experiment with SF-268, in the experiment on OVCAR-4, in the experiment on NCI-H23, in the experiment with SK-MEL-28, with RXF 393 and in the experiment on OVCAR-3 was > 100 µM (inactive) in each case. The GI50 in the experiment with HOP-62 and with U-251 was > 100 µM (inactive) in each case.
Turning to `N#Cc1c(Cl)c2ccccc2n2c1nc1ccccc12`, the GI50 was 16.1 µM (inactive) in the experiment with UO-31; 5.33 µM (inactive) with HL-60; 87.9 µM (inactive) in the experiment on SK-OV-3; 35 µM (inactive) in the experiment on MDA-N; 23.1 µM (inactive) in the experiment with COLO 205; 30.3 µM (inactive) with MOLT-4. Besides, the GI50 in the experiment with PC-3 is 31 µM (inactive); with DU-145, 27.7 µM (inactive); with A549, > 100 µM (inactive); in the experiment on K562 it was 18.9 µM (inactive); in the experiment on KM12, 34.1 µM (inactive); in the experiment on IGROV-1 it was 13.9 µM (inactive). For the same compound, the GI50 in the experiment on SF-268 is 27.2 µM (inactive); in the experiment with OVCAR-4, 27.4 µM (inactive); in the experiment on NCI-H23, 24.2 µM (inactive); in the experiment on SK-MEL-28, 79.3 µM (inactive); in the experiment on RXF 393 it was 22.6 µM (inactive); in the experiment on OVCAR-3, 36.5 µM (inactive). Also, the values for the GI50 in the experiment on HOP-62 and in the experiment on U-251 were 38 µM (inactive) and 92.7 µM (inactive), respectively.
`COc1ccc(C[C@@H]2NC[C@@H](O)[C@@H]2OC(C)=O)cc1`: the GI50 with UO-31 was 0.0247 µM (active); in the experiment with HL-60 it was 0.00374 µM (active); in the experiment with SK-OV-3 it was 0.0169 µM (active); with MDA-N, 0.0212 µM (active); in the experiment on COLO 205 it was 0.0102 µM (active); in the experiment on MOLT-4, 0.0105 µM (active). Besides, the GI50 was 0.0196 µM (active) with PC-3; 0.0191 µM (active) in the experiment with DU-145; 0.0316 µM (active) in the experiment on A549; 0.0104 µM (active) in the experiment with K562; 0.027 µM (active) with KM12; 0.0435 µM (active) with IGROV-1. Further, the GI50 with SF-268 is 0.0232 µM (active); in the experiment with OVCAR-4 it was 0.00957 µM (active); in the experiment with NCI-H23, 0.021 µM (active); in the experiment on SK-MEL-28 it was 0.0206 µM (active); in the experiment with RXF 393, 0.00641 µM (active); in the experiment on OVCAR-3 it was 0.0256 µM (active). In addition, the GI50 in the experiment with HOP-62 was 0.0214 µM (active); in the experiment on U-251, 0.0173 µM (active).
As for `COCOc1cc(OC)c(Br)cc1C/C(=N/O)C(=O)OC`, the GI50 is 53.7 µM (inactive) in the experiment on UO-31; 52.7 µM (inactive) in the experiment with HL-60; > 100 µM (inactive) in the experiment on SK-OV-3; 28 µM (inactive) in the experiment with MDA-N; > 100 µM (inactive) in the experiment on COLO 205; 27.5 µM (inactive) in the experiment on MOLT-4. The GI50 in the experiment with PC-3 is 42.9 µM (inactive); with DU-145, > 100 µM (inactive); in the experiment with A549, 91.6 µM (inactive); in the experiment on K562, 49.7 µM (inactive); in the experiment with KM12 it was > 100 µM (inactive); with IGROV-1, 56.4 µM (inactive). Further, the GI50 is 39.8 µM (inactive) in the experiment on SF-268; 52.5 µM (inactive) in the experiment on OVCAR-4; 90.4 µM (inactive) with NCI-H23; > 100 µM (inactive) with SK-MEL-28; 28.5 µM (inactive) in the experiment on RXF 393; 43.1 µM (inactive) in the experiment with OVCAR-3. For the same compound, the results for the GI50 in the experiment on HOP-62 and with U-251 were 67.3 µM (inactive) and > 100 µM (inactive), respectively.
Turning to `CC(O)CCCOC(c1ccccc1)(c1ccccc1)c1ccccc1` (stereo not given), the GI50 in the experiment on UO-31 is 13.7 µM (inactive); with HL-60, 17.6 µM (inactive); with SK-OV-3 it was 16.6 µM (inactive); with MDA-N, 16.8 µM (inactive); in the experiment on COLO 205, 20.1 µM (inactive); with MOLT-4 it was 16.6 µM (inactive). Besides, the GI50 in the experiment with PC-3 is 11.5 µM (inactive); in the experiment with DU-145, 16.6 µM (inactive); in the experiment with A549 it was 13.8 µM (inactive); in the experiment on K562, 22.9 µM (inactive); with KM12, 14.3 µM (inactive); in the experiment on IGROV-1, 15.7 µM (inactive). The GI50 with SF-268 was 15.9 µM (inactive); with OVCAR-4, 14.8 µM (inactive); in the experiment on NCI-H23 it was 14.1 µM (inactive); in the experiment on SK-MEL-28 it was 16.4 µM (inactive); in the experiment on RXF 393, 14.7 µM (inactive); in the experiment with OVCAR-3, 14.2 µM (inactive). In addition, the GI50 in the experiment on HOP-62 is 17.3 µM (inactive); with U-251, 16.4 µM (inactive).
On to `O=C(O)C(O)C(O)C(O)C(=O)CO` (stereo not given), for which the GI50 in the experiment on UO-31, with HL-60, in the experiment on SK-OV-3, in the experiment on MDA-N, in the experiment with COLO 205 and in the experiment with MOLT-4 was > 100 µM (inactive) throughout. Also, the GI50 with PC-3, with DU-145, in the experiment on A549, in the experiment with K562, in the experiment with KM12 and in the experiment with IGROV-1 was > 100 µM (inactive) each time. The GI50 in the experiment on SF-268, in the experiment on OVCAR-4, in the experiment with NCI-H23, with SK-MEL-28, with RXF 393 and in the experiment on OVCAR-3 was > 100 µM (inactive) in each case. Also, the GI50 in the experiment on HOP-62 and with U-251 was > 100 µM (inactive) each time.
In the case of `O=C(CCc1cccc(O)c1)NCCc1cccc(O)c1`, the GI50 in the experiment with UO-31, in the experiment with HL-60, in the experiment on SK-OV-3, in the experiment on MDA-N, in the experiment on COLO 205 and in the experiment on MOLT-4 was > 100 µM (inactive) throughout. Besides, the GI50 in the experiment on PC-3, with DU-145, with A549, in the experiment on K562, in the experiment with KM12 and in the experiment with IGROV-1 was > 100 µM (inactive) throughout. Moreover, the GI50 with SF-268, in the experiment with OVCAR-4, in the experiment with NCI-H23, in the experiment on SK-MEL-28, with RXF 393 and in the experiment on OVCAR-3 was > 100 µM (inactive) each time. The GI50 with HOP-62 and in the experiment with U-251 was > 100 µM (inactive) each time.
With `C=C(C)C(O)CCC1(C)C=Cc2c(c(C)cc3c2[nH]c2ccccc23)O1` (stereo not given), the GI50 with UO-31 is 6.87 µM (inactive); with HL-60, 6.68 µM (inactive); in the experiment with SK-OV-3, 23.3 µM (inactive); in the experiment with MDA-N it was 3.58 µM (inactive); in the experiment with COLO 205 it was 4.65 µM (inactive); in the experiment with MOLT-4, 5.75 µM (inactive). The GI50 with PC-3 was 6.55 µM (inactive); with DU-145, 12.6 µM (inactive); in the experiment with A549, 7.4 µM (inactive); in the experiment with K562, 6.25 µM (inactive); in the experiment on KM12, 5.85 µM (inactive); in the experiment with IGROV-1, 17.1 µM (inactive). For the same compound, the GI50 in the experiment on SF-268 was 9.93 µM (inactive); in the experiment on OVCAR-4 it was 16.5 µM (inactive); in the experiment on NCI-H23, 10.7 µM (inactive); in the experiment on SK-MEL-28, 16.7 µM (inactive); in the experiment on RXF 393 it was 0.245 µM (active); in the experiment on OVCAR-3, 7.52 µM (inactive). Besides, the figures for the GI50 with HOP-62 and in the experiment with U-251 were 4.75 µM (inactive) and 5.01 µM (inactive), respectively.

By GI50 is commonly meant the concentration at which growth is held to half of that of the control.
